Data published in EP2332528A1, “Substituted aromatic dicarbonic acid amides as medicaments” (Grünenthal GmbH, priority 2009, dated 2011).

Tested on: vGLUT1- bzw. vGLUT2-Transporter
Experiment: Glutamate uptake in rat crude synaptic vesicles ([3H]-glutamate uptake)
Assay type: biochemical, Ratte
Conditions: for IC50: read-out: VGLUT (Ratte), IC50; for VGLUT (Ratte), Hemmung [%]: test concentration not given
Excerpt: I. Funktionelle Untersuchung an den vGLUT1- bzw. vGLUT2-Transportern
Die agonistische bzw. antagonistische Wirkung der zu untersuchenden Verbindungen am vGLUT1- bzw. vGLUT2-Transporter der Spezies Ratte kann mit folgendem Assay bestimmt werden.
Glutamat-Uptake in Rattenvesikel ('rat crude synaptic vesicles')
Die Präparation von Vesikeln wurde aus Rattengehirn-Homogenaten (männlichen Ratten, Stamm Wistar SPF, 150-250 g Gewicht) durchgeführt gemäß Roseth et al. (1995) J. Neurochem. 65: 96-103, der sich auf Whittaker et al. (1964) Biochem J. 90, 293-303 und Fykse und Fonnum (1988) J. Neurochem. 50: 1237-1242 bezieht.
Hierzu wurden frisch entnommene Rattengehirne in 0,32 M Saccharose, 10 mM TRIS-maleat, 1 mM EGTA, pH 7,4 (10 ml/g Frischgewicht) mit einem Potter-Homogenisator (Fa. Braun/Melsungen; 5 Kolbenhübe bei 800 Upm) unter Eiskühlung homogenisiert und anschließend für 10 Minuten bei 3.000 g und 4°C zentrifugiert. Der resultierende Überstand wurde bei 20.000 g für 30 Minuten bei 4°C zentrifugiert. Das entstandene Pellet wurde dann im Verhältnis 1:3 mit 10 mM TRIS-maleate, 0,1 mM EGTA, pH 7,4 osmotisch geschockt und die Suspension bei 17000g für 30 min (4°C) zentrifugiert. Die im Überstand verbliebenen Vesikel wurden nun auf einen Dichtegradienten aus 0,6 M Saccharose in 10 mM TRIS-maleat, 1 mM EGTA, pH 7.4 und 0.4 M Saccharose in 10 mM TRIS-maleat, 1 mM EGTA, pH 7.4 geschichtet. Eine Ultrazentrifugation der Gradienten im Ausschwingrotor bei 65000g für 2h (4°C) schloss sich an. Die Vesikel-Fraktion wurde von der 0.4 M Saccharose-Bande isoliert und im Uptake-Versuch eingesetzt.
Die Substratlösung für den Uptake von [^3H]-Glutamat bestand aus ATP (neutralisiert mit Trisma base; 2 mM im Endansatz), Glutamat (0.5 mM im Endansatz) und ^3H-Glutamat (0.5 µCi im Endansatz). In 14 ml-Reagiergefäßen (Sarstedt, Artikel-Nr.: 798438) wurden jeweils 0,3 ml Gesamtvolumina (n=2/Probe) pipettiert in der folgenden Reihenfolge: 1.) 165 µl Inkubationspuffer (110 mM Kaliumtartrat, 10 mM TRIS-maleat, pH 7,4, 4 mM MgCl2), 2.) 10 µl Testsubstanz oder Vehikelkontrolle oder blank, 3.) 100 µl synaptische Vesikel. Es schloss sich eine Vorinkubation von 15 min bei 30°C an (nur blank-Ansätze befanden sich hierbei auf Eis). Danach wurde der Uptake durch Zugabe von 25 µl der oben beschriebenen Substratlösung gestartet. Die Reaktion wurde nach 5 min durch Zugabe von 7,0 ml eiskalter 150 mM KCI gestoppt. Anschließend wurden die Proben mit Hilfe des Brandel Cell Harvesters Typ M-24R über einen Membranfilter der Porengröße 0,8 µm abgesaugt und zweimal mit eiskalter 150 mM KCI nachgewaschen. Die Messung erfolgte am beta-Counter nach 15 h in 10 ml Szintillatorflüssigkeit (Filter Count).
Die Affinität der Verbindungen der allgemeinen Formel (I) für den vGLUT1- bzw. vGLUT2-Transporter wurde wie vorstehend beschrieben bestimmt (Pharmakologische Methoden).

Question: Which IC50 does the source give for O=C(Nc1ccccc1C(=O)O)c1ccc(Oc2ccc(C(=O)Nc3ccccc3C(=O)O)cc2)cc1 [Beispiel 3, 2-(4-(4-(2-Carboxyphenylcarbamoyl)phenoxy)benzamido)-benzoesäure] here?
Answer: 2260 nM

Question: And the “VGLUT (Ratte), Hemmung [%]” value?
Answer: 88%

Question: Which IC50 does the source give for O=C(Nc1ccccc1C(=O)O)c1ccc(C(=O)Nc2ccccc2C(=O)O)cc1 [Beispiel 1, 2-(4-(2-Carboxyphenylcarbamoyl)benzamido)benzoesäure] here?
Answer: 1290 nM

Question: What about the “VGLUT (Ratte), Hemmung [%]” value of the same compound?
Answer: 91%

Question: How did the IC50 turn out when O=C(Nc1cc([N+](=O)[O-])ccc1C(=O)O)c1ccc(C(=O)Nc2cc([N+](=O)[O-])ccc2C(=O)O)cc1 [Beispiel 5, 2-(4-(2-Carboxy-5-nitrophenylcarbamoyl)benzamido)-4-nitrobenzoesäure] was run?
Answer: 860 nM

Question: And the “VGLUT (Ratte), Hemmung [%]” value?
Answer: 88%

Question: Which results are given for O=C(Nc1cc([N+](=O)[O-])ccc1C(=O)O)c1cccc(C(=O)Nc2cc([N+](=O)[O-])ccc2C(=O)O)c1 [Beispiel 4, 2-(3-(2-Carboxy-5-nitrophenylcarbamoyl)benzamido)-4-nitrobenzoesäure]?
Answer: IC50: 320 nM; VGLUT (Ratte), Hemmung [%]: 92%

Question: O=C(Nc1ccccc1C(=O)O)c1cccc(C(=O)Nc2ccccc2C(=O)O)c1 [Beispiel 2, 2-(3-(2-Carboxyphenylcarbamoyl)benzamido)benzoesäure] was tested. Which IC50 did it give?
Answer: 3350 nM

Question: What about the “VGLUT (Ratte), Hemmung [%]” value of the same compound?
Answer: 78%
